Columns and labels:
Test in all cases: Test B pre-/postemergence plant response
Type in all cases: in vivo
[1] = tested on: goosegrass (Eleusine indica); details: for Goosegrass plant response rating: 8 g ai/ha
Method in brief: (§1)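 Seeds were sown and sprayed preemergence, while plants at 2 to 18 cm (1- to 4-leaf stage) got postemergence sprays. Compounds were formulated in a non-phytotoxic solvent mixture with surfactant. After 13 to 15 days in a greenhouse, injury was rated visually against untreated controls, 0 (no effect) to 100 (complete control).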

[2] = tested on: cocklebur (Xanthium strumarium); details: for Cocklebur plant response rating: 8 g ai/ha
Method in brief: as §1

[3] = tested on: common ragweed (Ambrosia elation); details: for Ragweed plant response rating: 8 g ai/ha
Method in brief: as §1

[4] = tested on: woolly cupgrass (Eriochloa villosa); details: for Cupgrass, Woolly plant response rating: 8 g ai/ha
Method in brief: as §1

[5] = tested on: johnsongrass (Sorghum halepense); details: for Johnsongrass plant response rating: 8 g ai/ha
Method in brief: as §1

[6] = tested on: blackgrass (Alopecurus myosuroides); details: for Blackgrass plant response rating: 8 g ai/ha
Method in brief: as §1

[7] = tested on: large crabgrass (Digitaria sanguinalis); details: for Crabgrass, Large plant response rating: 8 g ai/ha
Method in brief: as §1

[8] = tested on: velvetleaf (Abutilon theophrasti); details: for Velvetleaf plant response rating: 8 g ai/ha
Method in brief: as §1

[9] = tested on: yellow nutsedge (Cyperus esculentus); details: for Nutsedge, Yellow plant response rating: 8 g ai/ha
Method in brief: as §1

corn (Zea mays) = details: for Corn plant response rating: 8 g ai/ha
Method in brief: as §1

[10] = tested on: Russian thistle (Salsola iberica); details: Preemergence
Method in brief: as §1

kochia (Kochia scoparia) = details: for Kochia plant response rating: 8 g ai/ha
Method in brief: as §1

[11] = tested on: catchweed bedstraw (Galium aparine); details: Preemergence
Method in brief: as §1

wild oat (Avena fatua) = details: for Oat, Wild plant response rating: 8 g ai/ha
Method in brief: as §1

[12] = Postemergence, 16 g ai/ha, scale 0 to 100
[13] = Postemergence, 31 g ai/ha, scale 0 to 100, 0 no effect, 100 complete control
[14] = Postemergence, 62 g ai/ha, scale 0 to 100, 0 no effect, 100 complete control
[15] = Preemergence, 16 g ai/ha, scale 0 to 100 (0 no effect, 100 complete control)
[16] = Preemergence, 31 g ai/ha, 0 to 100 scale, 0 no effect, 100 complete control
[17] = Preemergence, 62 g ai/ha, scale 0 to 100
[18] = 16 g ai/ha, scale 0 to 100 (0 no effect, 100 complete control)
[19] = 31 g ai/ha, 0 to 100 scale, 0 no effect, 100 complete control

Cc1cc(-c2ccc(Cl)cc2)nn1-c1c(OC(=O)C(C)C)cnn(C)c1=O [Compound 34]
65: Johnsongrass plant response rating ([5]; Preemergence, scale 0 to 100) | Plant response rating, Corn (corn (Zea mays); [15])
40: Oat, Wild plant response rating (wild oat (Avena fatua); Preemergence, scale 0 to 100)
90: Plant response rating, Cupgrass, Woolly [4, 12] | Plant response rating, Cupgrass, Woolly [4, 15] | Plant response rating, Blackgrass [6, 14] | Plant response rating, Oat, Wild (wild oat (Avena fatua); [12]) | Plant response rating, Oat, Wild (wild oat (Avena fatua); [17])
75: Cupgrass, Woolly plant response rating ([4]; postemergence, 0-100 scale) | Johnsongrass plant response rating ([5]; postemergence, 0-100 scale) | Plant response rating, Blackgrass [6, 12] | Plant response rating, Blackgrass [6, 13]
80: Plant response rating, Goosegrass [1, 14] | Plant response rating, Crabgrass, Large [7, 12]
85: Plant response rating, Goosegrass [1, 15] | Plant response rating, Blackgrass [6, 15] | Plant response rating, Corn (corn (Zea mays); [16]) | Plant response rating, Oat, Wild (wild oat (Avena fatua); [16])
55: Plant response rating, Goosegrass [1, 12] | Goosegrass plant response rating ([1]; Preemergence, scale 0 to 100) | Cupgrass, Woolly plant response rating ([4]; Preemergence, scale 0 to 100)
70: Plant response rating, Goosegrass [1, 13] | Crabgrass, Large plant response rating ([7]; postemergence, 0-100 scale) | Oat, Wild plant response rating (wild oat (Avena fatua); postemergence, 0-100 scale)
98: Plant response rating, Goosegrass [1, 16] | Plant response rating, Johnsongrass [5, 13] | Plant response rating, Corn (corn (Zea mays); [12]) | Plant response rating, Corn (corn (Zea mays); [13]) | Plant response rating, Corn (corn (Zea mays); [14])
100: Plant response rating, Goosegrass [1, 17] | Plant response rating, Cupgrass, Woolly [4, 13] | Plant response rating, Cupgrass, Woolly [4, 14] | Plant response rating, Johnsongrass [5, 14] | Plant response rating, Johnsongrass [5, 16] | Plant response rating, Johnsongrass [5, 17] | Plant response rating, Blackgrass [6, 16] | Plant response rating, Blackgrass [6, 17] | Plant response rating, Crabgrass, Large [7, 14] | Plant response rating, Crabgrass, Large [7, 15] | Plant response rating, Crabgrass, Large [7, 16] | Plant response rating, Crabgrass, Large [7, 17] | Crabgrass, Large plant response rating ([7]; Preemergence, scale 0 to 100) | Plant response rating, Oat, Wild (wild oat (Avena fatua); [14])
50: Goosegrass plant response rating ([1]; postemergence, 0-100 scale)
95: Plant response rating, Cupgrass, Woolly [4, 16] | Plant response rating, Cupgrass, Woolly [4, 17] | Plant response rating, Johnsongrass [5, 12] | Plant response rating, Johnsongrass [5, 15] | Plant response rating, Crabgrass, Large [7, 13] | Plant response rating, Corn (corn (Zea mays); [17]) | Plant response rating, Oat, Wild (wild oat (Avena fatua); [13])
0: Cocklebur plant response rating ([2]; postemergence, 0-100 scale) | Plant response rating, Cocklebur [2, 12] | Plant response rating, Cocklebur [2, 13] | Plant response rating, Cocklebur [2, 14] | Plant response rating, Cocklebur [2, 15] | Plant response rating, Cocklebur [2, 16] | Plant response rating, Cocklebur [2, 17] | Cocklebur plant response rating ([2]; Preemergence, scale 0 to 100) | Ragweed plant response rating ([3]; postemergence, 0-100 scale) | Plant response rating, Ragweed [3, 12] | Plant response rating, Ragweed [3, 13] | Plant response rating, Ragweed [3, 14] | Plant response rating, Ragweed [3, 15] | Plant response rating, Ragweed [3, 16] | Plant response rating, Ragweed [3, 17] | Ragweed plant response rating ([3]; Preemergence, scale 0 to 100) | Blackgrass plant response rating ([6]; postemergence, 0-100 scale) | Blackgrass plant response rating ([6]; Preemergence, scale 0 to 100) | Velvetleaf plant response rating ([8]; postemergence, 0-100 scale) | Plant response rating, Velvetleaf [8, 12] | Plant response rating, Velvetleaf [8, 14] | Plant response rating, Velvetleaf [8, 15] | Plant response rating, Velvetleaf [8, 16] | Plant response rating, Velvetleaf [8, 17] | Velvetleaf plant response rating ([8]; Preemergence, scale 0 to 100) | Nutsedge, Yellow plant response rating ([9]; postemergence, 0-100 scale) | Plant response rating, Nutsedge, Yellow [9, 12] | Plant response rating, Nutsedge, Yellow [9, 13] | Plant response rating, Nutsedge, Yellow [9, 14] | Plant response rating, Nutsedge, Yellow [9, 15] | Plant response rating, Nutsedge, Yellow [9, 16] | Plant response rating, Nutsedge, Yellow [9, 17] | Nutsedge, Yellow plant response rating ([9]; Preemergence, scale 0 to 100) | Corn plant response rating (corn (Zea mays); postemergence, 0-100 scale) | Corn plant response rating (corn (Zea mays); Preemergence, scale 0 to 100) | Plant response rating, Russian Thistle [10, 18] | Plant response rating, Russian Thistle [10, 19] | Plant response rating, Russian Thistle ([10]; 62 g ai/ha, scale 0 to 100) | Russian Thistle plant response rating ([10]; 8 g ai/ha, scale 0 to 100) | Kochia plant response rating (kochia (Kochia scoparia); postemergence, 0-100 scale) | Plant response rating, Kochia (kochia (Kochia scoparia); [12]) | Plant response rating, Kochia (kochia (Kochia scoparia); [13]) | Plant response rating, Kochia (kochia (Kochia scoparia); [14]) | Plant response rating, Kochia (kochia (Kochia scoparia); [15]) | Plant response rating, Kochia (kochia (Kochia scoparia); [16]) | Plant response rating, Kochia (kochia (Kochia scoparia); [17]) | Kochia plant response rating (kochia (Kochia scoparia); Preemergence, scale 0 to 100) | Plant response rating, Galium [11, 18] | Plant response rating, Galium [11, 19] | Plant response rating, Galium ([11]; 62 g ai/ha, scale 0 to 100) | Galium plant response rating ([11]; 8 g ai/ha, scale 0 to 100)

Source: patent US20100267561A1, “HERBICIDAL PYRIDAZINONE DERIVATIVES” (priority 2007, published 2010)
